Experiments:
[1] = Octanol/water distribution coefficient (log P/D), isocratic HPLC method; format: physicochemical; settings: pH 7.4; mean (range, n); read-out: logP/D pH 7.4
Text: The distribution coefficient octanol/water P or D is a key parameter for estimating membrane penetration and permeability. It is defined as the ratio of the equilibrium concentrations of a substance in the two-phase system octanol/water.
[formula] P=partition D=distribution c(octanol)=concentration of the substance in the octanol phase c(water)=concentration of the substance in the aqueous phase
It is usually stated in form of the decadic logarithm (log P or log D).
log P describes the distribution behavior of a substance exclusively present in its neutral form. logD describes the distribution behavior of a substance at a certain pH; depending on the ionisation constant pKa of the substance, some of the substance may be present in ionic form, and some in neutral form.
The log P/D of the active compounds was determined using an isocratic HPLC method (HPLC=high performance liquid chromatography) (literature: OECD Guideline for Testing of Chemicals No. 117). The method is based on the correlation of the HPLC retention time of the test substance to that of reference substances with known distribution coefficients.
The test substance was employed as a 10 mM solution in DMSO (DMSO=dimethyl sulfoxide). 10 μl of this solution were made up to 100 μl with a methanol/water mixture in a ratio of 7+3.
The nine reference substances were dissolved individually in methanol. 100 μl each of the stock solutions were added to an HPLC vial and mixed with 300 μl of water.
A formamide solution was used to determine the hold-up time. To this end, 7 mg of formamide were dissolved in 10 ml of methanol. 100 μl of this stock solution were mixed with 500 μl of methanol and 200 μl of water.
All solutions were chromatographed using a flow rate of 1.00 ml/min.
Injection Protocol: formamide, references, test substance 1, test substance 2, . . . , formamide, references.
Evaluation of the retention times was carried out in a diode array detector (DAD) at 200-400 nm. Via the molecular mass, the identity of the test substance was checked using the downstream mass spectrometer.
The HPLC run was evaluated using the Waters software Masslynx 4.1.
The log P/D values were calculated using the software “POW Determination” (proprietary development).

[2] = Pharmacokinetic parameters in the rat (i.v. and intragastric); format: in vivo; settings: intragastric vs. i.v.
Method: For this, the test substances were applied in dissolved form both for intravenous, and for intragastric application, wherein compatible solubilizers such as PEG400 and/or ethanol were used in a compatible amount.
The test substances were applied at a dose of 0.1-1 mg/kg. Administration was as a bolus injection in the male rat and as an infusion in the female dog (15 min). At various time points after the bolus injection, and before and after the 15-minute infusion, blood samples of about 100-150 μl were removed via a catheter either from the jugular vein (rat) or from the saphenous vein (dog). Lithium-heparin was added as anticoagulant to the blood samples and they were stored in a refrigerator until required for further processing. After centrifugation of the samples for 15 min at 3000 rpm, an aliquot of 100 μl was taken from the supernatant (plasma) and was precipitated by adding 400 μl of cold ACN or methanol (absolute). The precipitated samples were frozen-out at […] overnight, then centrifuged again at 3000 rpm for 15 min, before 150 μl of the clear supernatant were removed to determine the concentration. The analysis was effected by means of an Agilent 1200 HPLC system with connected LCMS/MS detection. […]

[3] = Maximum tolerated dose (MTD) in the mouse; format: in vivo; settings: female nude mice, 21 days
Method: The MTD was defined as the highest dose which could be administered without any animal dying during the treatment phase, and without any body weight loss of more than 10% compared to the initial weight.
Example 1-1 was administered to female nude mice (NMRI nu/nu):
(§1) Administration route: per os
• (Solutol HS15: polyoxyethylene ester of 12-hydroxystearic acid) Administration volume:10 ml/kg Protocol: see Table 7
The treatment phase was followed by an observation phase of 21 days.

[4] = test system: PC-3 prostate carcinoma xenograft; experiment: In-vivo efficacy in the PC3 xenograft model in the mouse; settings: 17 days, 2 administrations per day; for T/C: final tumor weight
Method: as §1
Administration volume: 10 ml/kg

Spodoptera frugiperda = Spodoptera frugiperda test (SPODFR spray treatment); format: in vivo; settings: 500 g/ha, after 7 days
Text: (§2) Solvents: 78.0 parts by weight of acetone

Myzus persicae = experiment: Myzus test (MYZUPE spray treatment); format: in vivo; settings: 500 g/ha, after 6 days
Tetranychus urticae = experiment: Tetranychus test, OP-resistant (TETRUR spray treatment); format: in vivo; settings: 100 g/ha, after 6 days
Method: as §2
After 6 days, the effect in % is determined.
Tetranychus Test, OP-Resistant (TETRUR Spray Treatment)

Phaedon cochleariae = experiment: Phaedon test (PHAECO spray treatment); settings: 500 g/ha, after 7 days
[5] = 80 mg/kg day 1-3, 70 mg/kg from day 4 onwards, per os

Q: For `Cc1ccc(-c2ccc(Cl)c(F)c2)cc1C1=C(O)C2(CCC(F)(F)CC2)NC1=O` [Example 1-1, 3-(4′-Chloro-3′-fluoro-4-methylbiphenyl-3-yl)-8,8-difluoro-4-hydroxy-1-azaspiro[4.5]dec-3-en-2-one], which chromatographic logD [1] is on record?
A: 1.9

Q: And the F [2]?
A: 95%

Q: And the Deaths ([3]; 12.5 mg/kg per os, 1 administration per day)?
A: 0 of 4

Q: What about the Deaths ([3]; 25 mg/kg per os, 1 administration per day) of the same compound?
A: 0 of 4

Q: And the Deaths ([3]; 50 mg/kg per os, 1 administration per day)?
A: 0 of 4

Q: And the Deaths ([3]; 50 mg/kg per os, 2 administrations per day)?
A: 0 of 4

Q: What about the Deaths ([3]; 75 mg/kg per os, 1 administration per day) of the same compound?
A: 0 of 4

Q: And the Deaths ([3]; 100 mg/kg per os, 1 administration per day)?
A: 0 of 4

Q: What about the Deaths ([4]; 40 mg/kg per os) of the same compound?
A: 0 of 9

Q: What about the Deaths [4, 5] of the same compound?
A: 0 of 9

Q: And the T/C ([4]; 40 mg/kg per os)?
A: 0.26

Q: What about the T/C [4, 5] of the same compound?
A: 0.26

Q: What about the “effect in % (caterpillars killed)” value (Spodoptera frugiperda) of the same compound?
A: 100%

Q: And the “effect in % (aphids killed)” value (Myzus persicae)?
A: 90%

Q: What about the “effect in % (spider mites killed)” value (Tetranychus urticae) of the same compound?
A: 90%

Q: And the “effect in % (beetle larvae killed)” value (Phaedon cochleariae)?
A: 100%

Source: patent publication US8946124B2, “Substituted 3-(biphenyl-3-yl)-8,8-difluoro-4-hydroxy-1-azaspiro[4.5]dec-3-en-2-ones for therapy and halogen-substituted spirocyclic ketoenols” (Bayer Intellectual Property GmbH, priority 2011, dated 2015)
